Our source for the IC50 and inhibition values is patent US5143927A, “3-(thiazolidone, oxazolidinone, imidazolidinone)-indoles as antiinflammatory agents” (Warner-Lambert Company, priority 1991, dated 1992).

Read-outs that look alike come from different tables or passages of the source.

One assay addresses T1, 5-lipoxygenase (Rattus norvegicus, UniProt P12527).
T1 construct: endogenous in cells; host or cells: RBL-1 (rat basophilic leukemia cells, from the American Type Culture Collection)
T1 sequence (P12527 1-673): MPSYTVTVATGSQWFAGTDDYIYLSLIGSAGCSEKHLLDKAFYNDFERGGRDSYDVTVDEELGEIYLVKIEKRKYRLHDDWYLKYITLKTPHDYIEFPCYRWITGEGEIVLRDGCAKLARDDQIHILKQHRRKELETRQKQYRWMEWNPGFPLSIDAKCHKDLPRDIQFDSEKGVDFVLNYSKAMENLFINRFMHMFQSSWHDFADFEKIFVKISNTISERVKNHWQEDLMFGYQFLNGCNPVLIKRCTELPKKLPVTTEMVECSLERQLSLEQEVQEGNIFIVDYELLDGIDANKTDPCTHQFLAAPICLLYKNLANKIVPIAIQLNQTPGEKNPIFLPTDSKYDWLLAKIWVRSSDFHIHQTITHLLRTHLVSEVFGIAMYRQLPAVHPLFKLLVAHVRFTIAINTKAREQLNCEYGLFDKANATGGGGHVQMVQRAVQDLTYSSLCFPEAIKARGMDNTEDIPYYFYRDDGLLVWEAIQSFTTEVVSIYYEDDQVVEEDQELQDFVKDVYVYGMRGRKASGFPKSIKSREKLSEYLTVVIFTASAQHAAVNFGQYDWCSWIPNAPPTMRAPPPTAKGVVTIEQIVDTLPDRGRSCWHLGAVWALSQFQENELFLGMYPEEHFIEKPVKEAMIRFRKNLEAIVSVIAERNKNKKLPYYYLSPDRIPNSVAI
Description: ARBL whole cell 5-lipoxygenase assay (inhibition of LTB4 formation in RBL-1 cells). It is filed as cell-based. To be noted: for IC50: A23187 (5 μM) stimulated, LTB4 formation; for inhibition at 10 µM: A23187 stimulated. On the procedure: (§1) ARBL/ARBC WHOLE CELL 5-LIPOXYGENASE AND CYCLOOXYGENASE ASSAYS
(§2) The rat basophilic leukemia cell line (RBL-1) was obtained from the American Type Culture Collection (Rockville, Md.).
(§3) Radioimmunoassay (RIA) kits of LTB4 and PGF2α were obtained from Amersham (Arlington Heights, Ill.) and Seragen (Boston, Mass.), respectively.
(§4) RBL-1 cells are grown in suspension culture in Eagle's minimum essential medium supplemented with 12% fetal bovine serum at 37° C. in an incubator supplied with air 5% carbon dioxide. Cells are harvested by centrifugation. They are washed with cold phosphate buffered saline, pH 7.4 (PBS; NaCl, 7.1 g; Na2 HPO4, 1.15 g; KH2 PO4, 0.2 g; and KCl, 0.2 g/L). Cells are finally suspended in PBS containing 1.0 mM calcium at a density of 2×10^6 cells/mL. Cells are incubated […] test agent (in DMSO) (1% DMSO is without effect on arachidonic acid metabolism) for 10 minutes at room temperature. Calcium ionophore A23187 (5 μM) is added and cells are incubated for 7 minutes at 37° C. The reaction is stopped by chilling the tubes on ice for 10 minutes. Cells are separated by centrifugation and the supernatant is stored at -20° C. Aliquots (100 μL) are analyzed for LTB4 and PGF2α using radioimmunoassay kits as provided by the supplier.
(§5) Table 1 contains biochemical data for compounds of formula I obtained from this whole cell assay as amount of inhibition at 10 μM or IC50 s which are calculated as the concentration of a test compound in micromoles (μM) causing 50% inhibition of LTB4 or PGF2α formation.

The next assay has as its target T2, cyclooxygenase (Rattus norvegicus, UniProt Q63921).
T2 construct: endogenous in cells; host or cells: RBL-1 (rat basophilic leukemia cells, from the American Type Culture Collection)
T2 sequence (Q63921 27-602): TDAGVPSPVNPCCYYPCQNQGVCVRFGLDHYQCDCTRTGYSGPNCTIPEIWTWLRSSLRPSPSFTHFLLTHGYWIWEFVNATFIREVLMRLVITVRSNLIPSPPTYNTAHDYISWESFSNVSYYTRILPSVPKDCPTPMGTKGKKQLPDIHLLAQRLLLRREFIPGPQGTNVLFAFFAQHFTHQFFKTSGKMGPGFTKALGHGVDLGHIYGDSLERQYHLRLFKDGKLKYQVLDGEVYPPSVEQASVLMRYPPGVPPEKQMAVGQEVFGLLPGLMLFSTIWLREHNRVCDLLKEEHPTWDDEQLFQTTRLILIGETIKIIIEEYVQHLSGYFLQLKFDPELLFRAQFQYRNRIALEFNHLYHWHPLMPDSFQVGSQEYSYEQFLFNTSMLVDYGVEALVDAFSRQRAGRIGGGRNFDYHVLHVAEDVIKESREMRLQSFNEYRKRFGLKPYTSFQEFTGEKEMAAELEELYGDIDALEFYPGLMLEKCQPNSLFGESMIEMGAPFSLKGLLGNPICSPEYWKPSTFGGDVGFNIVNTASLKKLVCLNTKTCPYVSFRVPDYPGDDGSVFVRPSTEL
Description: ARBC whole cell cyclooxygenase assay (inhibition of PGF2α formation in RBL-1 cells). It is filed as cell-based. The conditions noted are these: for IC50: A23187 (5 μM) stimulated, PGF2α formation, read-out: ARBC, inhibition of PGF2, IC50; for inhibition at 10 µM: A23187 stimulated, read-out: ARBC, inhibition of PGF2. How it is done: as §1, §2, §3, §4, §5

A word on the IC50: it is the concentration at which inhibition is half-maximal. For the molecule `COc1ccc2[nH]c(C)c(/C=C3\SC(SC)=NC3=O)c2c1` [Example 1, (Z) -5-[(5 -Methoxy-2-methyl-1H -indol-3-yl)methylene]-2-(methylthio)-4(5H)-thiazolone], the results for the IC50 at 5-lipoxygenase and on cyclooxygenase were 8230 nM and 290 nM, respectively.

For orientation: inhibition means the drop in the measured response relative to a control, in per cent. `COc1ccc2c(c1)c(/C=C1\SC(N)=NC1=O)c(C)n2C(=O)c1ccc(Cl)cc1` [Example 5, (Z)-5-[[1-(4-Chlorobenzoyl)-5-methoxy-2-methyl-1H-indol-3-yl]methylene]-2-imino-4-thiazolidinone]: the inhibition at 10 µM at 5-lipoxygenase (inhibition at 10 μM) was 48%; at cyclooxygenase (class symbol, 10 μM), < 40%.

On to `COc1ccc2c(c1)c(/C=C1\SC(=S)N(CC(=O)O)C1=O)c(C)n2C(=O)c1ccc(Cl)cc1` [Example 4, (Z)-5-[[1-(4-Chlorobenzoyl)-5-methoxy-2-methyl-1H-indol-3-yl]methylene]-4-oxo-2-thioxo-3-thiazolidine acetic acid], for which the results for the inhibition at 10 µM against 5-lipoxygenase (inhibition at 10 μM) and at cyclooxygenase (inhibition at 10 μM) were 90% and 60%, respectively.

As for `COc1ccc2[nH]c(C)c(/C=C3\SC(NC#N)=NC3=O)c2c1` [Example 2, (Z)-[4,5-Dihydro-5-[(5-methoxy-2-methyl-1H-indol-3-yl)methylene]-4-oxo-2-thiazolyl]-cyanamide], the inhibition at 10 µM at 5-lipoxygenase (class symbol, 10 μM) is < 40%; on cyclooxygenase (class symbol, 10 μM), < 40%.

For the molecule `CSC1=NC(=O)/C(=C/c2c(C)[nH]c3ccccc23)S1` [Example 3, (Z) -5-[(2-Methyl-1H-indol-3-yl)methylene]-2-(methylthio)-4(5H)-thiazolone], the IC50 against 5-lipoxygenase was 4430 nM; at cyclooxygenase, 140 nM.
